Results as given in patent publication US11591369B2, “Alpha(v)beta(6) integrin-binding peptides and methods of use thereof” (priority 2018, dated 2023).
Values joined by “and” are separate entries in the source; they are usually repeats but may differ in a detail not shown here. Equal values may be shown once. Read-outs that look alike come from different tables or passages of the source. Where a SMILES comes first, the peptide text is derived from it. Primed or numbered codes have the meaning given here. Where no end group is shown, it is not given here. [ ]: non-standard residue; d: D form. The star is where a group is joined. (18F)FB = [18F] fluorobenzoyl group, O=C(c1ccc([18F])cc1)*; (18F)FB″ = [18F]fluorobenzoyl, O=C(c1ccc([18F])cc1)*; PEG12′ = polyethylene glycol, 12 units; PEG28″ = polyethylene glycol, 28 units; PEG2′ = polyethylene glycol, 2 units; PEG4′ = polyethylene glycol, 4 units; PEG8′ = polyethylene glycol, 8 units; Benzoyl(4-F) = O=C(c1ccc(F)cc1)*; PEG28′ = polyethylene glycol-28; Amb = aminomethylbenzoyl

Columns and labels:
[1] = target: T1, αvβ3 integrin (Homo sapiens, UniProt P05106+P06756); experiment: Competitive binding ELISA, αvβ3 integrin
T1 construct: All purified integrins were purchased from R&D Systems (MN, USA); purchased R&D Systems (MN, USA)

[2] = target: T2, αvβ6 integrin (Homo sapiens, UniProt P06756+P18564); experiment: Competitive binding ELISA against biotinylated LAP (BtLAP), αvβ6 integrin; conditions: for binding selectivity for αvβ6 over αvβ3 and αvβ8 integrins: ELISA IC50 ratio; for IC50 αvβ6: competitive ELISA vs BtLAP, mean ± SD, n = 3
T2 construct: All purified integrins were purchased from R&D Systems (MN, USA); purchased R&D Systems (MN, USA)

[3] = target: T3, αvβ8 integrin (Homo sapiens, UniProt P06756+P26012); experiment: Competitive binding ELISA, αvβ8 integrin
T3 construct: All purified integrins were purchased from R&D Systems (MN, USA); purchased R&D Systems (MN, USA)

[4] = tested on: DX3puroβ6 (αvβ6+) cells; experiment: [18F]-radiolabeled peptide cell binding and internalization, DX3puroβ6 (αvβ6+) cells; format: cell-based, human; set-up: fold increase in binding to DX3puroβ6 (αvβ6+) cells / fold lower binding to DX3puroβ6 (αvβ6+) cells: reference not given here; conditions: for binding to DX3puroβ6 (αvβ6+) cells: % of total activity, 37° C.
[5] = Circular dichroism (CD) spectroscopy; format: physicochemical; conditions: for % Helical Content CD Buffer: 25 mM phosphate + 100 mM NaF; for % Helical Content CD Buffer + 30% TFE: buffer with 30% trifluoroethanol; for α-helix formation in CD buffer with TFE: buffer with added TFE, 30%
[6] = tested on: αvβ6-expressing human tumors; conditions: mouse, in vivo; cited from earlier work
[7] = 37° C., 1 hour, radio-HPLC

| Compound | IC50 [1] | IC50 [2] | IC50 [3] | binding to DX3puroβ6 (αvβ6+) cells ([4]; 1 hour) | DX3puroβ6 (αvβ6+)/DX3puro (αvβ6−) selectivity ratio [4] | intact peptide in mouse serum [7] | percent internalized relative to the amount bound to DX3puroβ6 (αvβ6+) cells ([4]; 1 hour) | further results |
| --- | --- | --- | --- | --- | --- | --- | --- | --- |
| CC(C)C[C@H](NC(=O)[C@H](CC(=O)O)NC(=O)[C@H](CO)NC(=O)[C@H](CCCNC(=N)N)NC(=O)c1ccc(F)cc1)C(=O)N[C@H](C(=O)N1CCC[C@H]1C(=O)N[C@@H](CC(C)C)C(=O)N[C@@H](Cc1ccccc1)C(=O)N[C@@H](CCC(N)=O)C(=O)N[C@@H](CCCCN)C(=O)N[C@H](C(=O)N[C@@H](C)C(=O)N[C@@H](CCCNC(=N)N)C(=O)N[C@H](C(N)=O)[C@@H](C)O)C(C)C)[C@@H](C)O [KL3Q] ({Benzoyl(4-F)}-RSDLTPLFQKVART-NH2) | > 100 µM | 0.0087 ± 0.0007 µM | > 100 µM | – | – | – | – | – |
| CC(C)C[C@H](NC(=O)[C@H](CC(=O)O)NC(=O)[C@H](CO)NC(=O)[C@H](CCCNC(=N)N)NC(=O)c1ccc(F)cc1)C(=O)N[C@H](C(=O)N1CCC[C@H]1C(=O)N[C@@H](CC(C)C)C(=O)N[C@@H](Cc1ccccc1)C(N)=O)[C@@H](C)O [KL3] ({Benzoyl(4-F)}-RSDLTPLF-NH2) | > 100 µM | 1.7 ± 0.5 µM | > 100 µM | 0.7±0.2% | – | – | – | DX3puroβ6 (αvβ6+)/DX3puro (αvβ6−) selectivity ratio ([4]; cell binding, 1 hour): 0.9±0.5 :1 |
| CC(C)C[C@H](NC(=O)[C@H](Cc1ccc(O)cc1)NC(=O)[C@@H](NC(=O)[C@H](CC(C)C)NC(=O)[C@H](CC(=O)O)NC(=O)CNC(=O)[C@@H](NC(=O)c1ccc(F)cc1)C(C)C)[C@@H](C)O)C(=O)N[C@@H](CCCCN)C(=O)N[C@@H](CCCCN)C(=O)N[C@@H](CCCCN)C(=O)N[C@H](C(=O)N[C@@H](C)C(=O)N[C@@H](CCCNC(=N)N)C(=O)N[C@H](C(N)=O)[C@@H](C)O)C(C)C [P1K-b] | > 100 µM | 0.01 ± 0.002 µM | > 100 µM | – | – | – | – | binding selectivity for αvβ6 over αvβ3 and αvβ8 integrins [2]: 10,000 :1; IC50 αvβ6 [2]: low nanomolar |
| CC(C)C[C@H](NC(=O)[C@H](Cc1ccc(O)cc1)NC(=O)[C@@H](NC(=O)[C@H](CC(C)C)NC(=O)[C@H](CC(=O)O)NC(=O)CNC(=O)[C@@H](NC(=O)c1ccc(F)cc1)C(C)C)[C@@H](C)O)C(=O)N[C@@H](CCCCN)C(=O)N[C@@H](CCCNC(=N)N)C(=O)N[C@@H](CCCCN)C(=O)N[C@@H](C)C(=O)N[C@H](C(=O)N[C@H](C(=O)N[C@@H](CCC(N)=O)C(N)=O)C(C)C)[C@@H](C)O [P1Q-Scrb] ({Benzoyl(4-F)}-VGDLTYLKRKATVQ-NH2) | > 100 µM | 0.014 ± 0.002 µM | 2.9 ± 0.74 µM | – | – | – | – | IC50 αvβ6 [2]: low nanomolar |
| CC(C)C[C@H](NC(=O)[C@H](Cc1ccc(O)cc1)NC(=O)[C@@H](NC(=O)[C@H](CC(C)C)NC(=O)[C@H](CC(=O)O)NC(=O)CNC(=O)[C@@H](NC(=O)c1ccc(F)cc1)C(C)C)[C@@H](C)O)C(=O)N[C@@H](CCCCN)C(=O)N[C@@H](CCC(N)=O)C(=O)N[C@@H](CCCCN)C(=O)N[C@H](C(=O)N[C@@H](C)C(=O)N[C@@H](CCCNC(=N)N)C(=O)N[C@H](C(N)=O)[C@@H](C)O)C(C)C [P1Q] | > 100 µM | 0.012 ± 0.001 µM | > 100 µM | – | 10.3 ± 1:1 | – | – | binding selectivity for αvβ6 over αvβ3 and αvβ8 integrins [2]: 10,000 :1; IC50 αvβ6 [2]: low nanomolar; % Helical Content CD Buffer [5]: 1.6%; % Helical Content CD Buffer + 30% TFE [5]: 45.1%; α-helix formation in CD buffer with TFE [5]: α-helices were induced |
| CC(C)C[C@H](NC(=O)[C@H](Cc1ccc(O)cc1)NC(=O)[C@@H](NC(=O)[C@H](CC(C)C)NC(=O)[C@H](CC(=O)O)NC(=O)CNC(=O)[C@@H](N)C(C)C)[C@@H](C)O)C(=O)N[C@@H](CCCCN)C(=O)N[C@@H](CCCCNC(=O)c1ccc(F)cc1)C(N)=O [P1] (H-VGDLTYLKK(Benzoyl(4-F))-NH2) | > 100 µM | 0.45 ± 0.06 µM | 5.3 ± 0.14 µM | – | 1.1 ± 0.1:1 | – | – | % Helical Content CD Buffer [5]: 6.3%; % Helical Content CD Buffer + 30% TFE [5]: 9.5%; α-helix formation in CD buffer with TFE [5]: could not form the helix |
| CC(C)C[C@H](NC(=O)[C@H](CC(=O)O)NC(=O)CNC(=O)[C@H](CCCNC(=N)N)NC(=O)c1ccc(F)cc1)C(=O)N[C@@H](C)C(=O)N[C@@H](CC(=O)O)C(=O)N[C@@H](CC(C)C)C(=O)N[C@@H](CCCNC(=N)N)C(=O)N[C@@H](CCC(N)=O)C(=O)N[C@@H](CCCCN)C(=O)N[C@H](C(=O)N[C@@H](C)C(=O)N[C@@H](CCCNC(=N)N)C(=O)N[C@H](C(N)=O)[C@@H](C)O)C(C)C [P3Q] ({Benzoyl(4-F)}-RGDLADLRQKVART-NH2) | > 100 µM | 0.004 ± 0.001 µM | 0.02 ± 0.003 µM | – | – | – | – | DX3puroβ6 (αvβ6+)/DX3puro (αvβ6−) selectivity ratio ([4]; cell binding, 1 hour): 11.8 ± 0.4:1; % Helical Content CD Buffer [5]: 14.7%; % Helical Content CD Buffer + 30% TFE [5]: 30% |
| CC(C)C[C@H](NC(=O)[C@H](CC(=O)O)NC(=O)CNC(=O)[C@@H](N)CCCNC(=N)N)C(=O)N[C@@H](C)C(=O)N[C@@H](CC(=O)O)C(=O)N[C@@H](CC(C)C)C(=O)N[C@@H](CCCNC(=N)N)C(=O)N[C@@H](CCCCNC(=O)c1ccc(F)cc1)C(N)=O [P3] (H-RGDLADLRK(Benzoyl(4-F))-NH2) | > 100 µM | 0.42 ± 0.07 µM | 0.2 ± 0.02 µM | 10.8±1.4% | – | – | – | DX3puroβ6 (αvβ6+)/DX3puro (αvβ6−) selectivity ratio ([4]; cell binding, 1 hour): 1.4±0.2 :1; % Helical Content CD Buffer [5]: 11.6%; % Helical Content CD Buffer + 30% TFE [5]: 7% |
| FB-NAVPNLRGDLQVLAQKVART [A20FMDV2, reference compound] | – | – | – | – | 10:1 | – | – | unmetabolized peptide in urine [6]: no unmetabolized peptide was detected |
| RGDLADLRK([^18F]FB) (RGDLADLRK((18F)FB″)) [[^18F]P3] | – | – | – | 10.8±1.4% | – | 0% | 4.3±0.6% | – |
| VGDLTYLKK([^18F]FB) (VGDLTYLKK((18F)FB″)) [[^18F]P1] | – | – | – | 12.8±1.9% | – | 25% and < 25% | 3.7±0.6% | – |
| VGDLTYLKK([^18F]FB)KVART (VGDLTYLKK((18F)FB″)KVART) [[^18F]P1K-a] | – | – | – | 6.2±1.3% | – | > 99% | – | – |
| [^18F]FB-Amb-VGDLTYLKQKVART-PEG28 ({(18F)FB″-Amb}-VGDLTYLKQKVART[PEG28′]) [N-[^18F]T1-f] | – | – | – | 6.8±0.2% | 3.2±0.4 :1 | < 50% | 25.2±2.4% | fold loss in selectivity for DX3puroβ6 (αvβ6+) cells [4]: 13 fold; fold decline in binding to DX3puroβ6 (αvβ6+) cells ([4]; compared to the parent T1): 3 fold |
| [^18F]FB-PEG2-VGDLTYLKQKVART-PEG28 ({(18F)FB″-PEG2′}-VGDLTYLKQKVART[PEG28″]) [N-[^18F]T1-a] | – | – | – | – | – | 65% | 31.1±7.2% | – |
| [^18F]FB-PEG4-VGDLTYLKQKVART-PEG28 ({(18F)FB″-PEG4′}-VGDLTYLKQKVART[PEG28″]) [N-[^18F]T1-b] | – | – | – | – | – | – | 33.9±7.9% | intact peptide in mouse serum ([7]; 60 min): 72% and 75% |
| [^18F]FB-PEG8-VGDLTYLKQKVART-PEG28 ({(18F)FB″-PEG8′}-VGDLTYLKQKVART[PEG28″]) [N-[^18F]T1-c] | – | – | – | – | – | 91% | 36.9±3% | – |
| [^18F]FB-PEG12-VGDLTYLKQKVART-PEG28 ({(18F)FB″-PEG12′}-VGDLTYLKQKVART[PEG28″]) [N-[^18F]T1-d] | – | – | – | – | – | 82% | 32±13% | – |
| [^18F]FB-PEG28Amb-VGDLTYLKQKVART-PEG28 ({(18F)FB-PEG28′-Amb}-VGDLTYLKQKVART[PEG28′]) [N-[^18F]T1-g] | – | – | – | 3±0.2% | 5.7±0.06 :1 and 5.7±0.05 :1 | 90% | 43.1±4.4% | fold loss in selectivity for DX3puroβ6 (αvβ6+) cells [4]: 7 fold; fold lower binding to DX3puroβ6 (αvβ6+) cells [4]: 2 fold |
| [^18F]FB-RGDLADLRQKVART ({(18F)FB″}-RGDLADLRQKVART) [N-[^18F]P3Q] | – | – | – | 20±0.4% and 20±0.2% and 20% | – | 16% | 12.4±3.6% | – |
| [^18F]FB-RGDLTYLKQKVART-PEG28 ({(18F)FB″}-RGDLTYLKQKVART[PEG28′]) [N-[^18F]T1-V1R] | – | – | – | 34.2±0.2% | 11.1±0.5 :1 | 54% | 11.1±2.6% | fold increase in binding to DX3puroβ6 (αvβ6+) cells [4]: 6 fold |
| [^18F]FB-VGDLTYLKQKVART-PEG28 ({(18F)FB″}-VGDLTYLKQKVART[PEG28′]) [N-[^18F]T1] | – | – | – | 18.1±0.8% | 41.7±5.3 :1 | 61% | – | fold increase in binding to DX3puroβ6 (αvβ6+) cells [4]: 3 fold |
